PubChem BioAssay (NCI)
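Grown in 96-well plates, cells were treated for 48 hours with each compound at five concentrations. Insufficient inhibition: endpoint recorded as highest concentration tested. At the TGI there is no net growth.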

Assays:
Assay in all cases: NCI anticancer screen, dose series, 48 h
A498 renal = system: A498 renal
A549 NSCLC = system: A549 NSCLC
ACHN renal = system: ACHN renal
CCRF-CEM leukemia = system: CCRF-CEM leukemia
COLO 205 colon = system: COLO 205 colon
DU-145 prostate = system: DU-145 prostate
HCC-2998 colon = system: HCC-2998 colon
HCT-116 colon = system: HCT-116 colon
HCT-15 colon = system: HCT-15 colon
HOP-92 NSCLC = system: HOP-92 NSCLC
HS 578T breast = system: HS 578T breast
HT29 colon = system: HT29 colon
KM12 colon = system: KM12 colon
LOX IMVI melanoma = system: LOX IMVI melanoma
MCF7 breast = system: MCF7 breast
MDA-MB-231 breast = system: MDA-MB-231 breast
MDA-MB-435 = system: MDA-MB-435
MDA-N = system: MDA-N
MOLT-4 leukemia = system: MOLT-4 leukemia
NCI-H226 lung = system: NCI-H226 lung
NCI-H23 lung = system: NCI-H23 lung
NCI-H460 lung = system: NCI-H460 lung
NCI-H522 lung = system: NCI-H522 lung
NCI/ADR-RES ovarian = system: NCI/ADR-RES ovarian
OVCAR-3 ovarian = system: OVCAR-3 ovarian
OVCAR-4 ovarian = system: OVCAR-4 ovarian
OVCAR-8 ovarian = system: OVCAR-8 ovarian
PC-3 prostate = system: PC-3 prostate
RXF 393 renal = system: RXF 393 renal
SF-268 CNS = system: SF-268 CNS
SF-295 CNS = system: SF-295 CNS
SK-MEL-28 melanoma = system: SK-MEL-28 melanoma
SK-MEL-5 melanoma = system: SK-MEL-5 melanoma
SK-OV-3 ovarian = system: SK-OV-3 ovarian
SN12C renal = system: SN12C renal
SNB-19 CNS = system: SNB-19 CNS
SNB-75 CNS = system: SNB-75 CNS
SR leukemia = system: SR leukemia
SW-620 colon = system: SW-620 colon
T-47D breast = system: T-47D breast
TK-10 renal = system: TK-10 renal
U251 CNS = system: U251 CNS
UACC-257 melanoma = system: UACC-257 melanoma
UO-31 renal = system: UO-31 renal
CAKI-1 renal = system: CAKI-1 renal
EKVX NSCLC = system: EKVX NSCLC
HL-60(TB) leukemia = system: HL-60(TB) leukemia
HOP-62 NSCLC = system: HOP-62 NSCLC
IGROV1 ovarian = system: IGROV1 ovarian
K-562 leukemia = system: K-562 leukemia
M14 melanoma = system: M14 melanoma
OVCAR-5 ovarian = system: OVCAR-5 ovarian
RPMI-8226 leukemia = system: RPMI-8226 leukemia
SF-539 CNS = system: SF-539 CNS
SK-MEL-2 melanoma = system: SK-MEL-2 melanoma
UACC-62 melanoma = system: UACC-62 melanoma
786-0 renal = system: 786-0 renal

Measured: TGI

CC1(CO)COC(C)(C)OC1
> 100 µM: A498 renal | A549 NSCLC | ACHN renal | CCRF-CEM leukemia | COLO 205 colon | DU-145 prostate | HCC-2998 colon | HCT-116 colon | HCT-15 colon | HOP-92 NSCLC | HS 578T breast | HT29 colon | KM12 colon | LOX IMVI melanoma | MCF7 breast | MDA-MB-231 breast | MDA-MB-435 | MDA-N | MOLT-4 leukemia | NCI-H226 lung | NCI-H23 lung | NCI-H460 lung | NCI-H522 lung | NCI/ADR-RES ovarian | OVCAR-3 ovarian | OVCAR-4 ovarian | OVCAR-8 ovarian | PC-3 prostate | RXF 393 renal | SF-268 CNS | SF-295 CNS | SK-MEL-28 melanoma | SK-MEL-5 melanoma | SK-OV-3 ovarian | SN12C renal | SNB-19 CNS | SNB-75 CNS | SR leukemia | SW-620 colon | T-47D breast | TK-10 renal | U251 CNS | UACC-257 melanoma | UO-31 renal

CCOC(=O)c1csc(NC(=O)CN(C)C)n1
> 100 µM: A498 renal | A549 NSCLC | ACHN renal | CAKI-1 renal | CCRF-CEM leukemia | COLO 205 colon | DU-145 prostate | EKVX NSCLC | HCC-2998 colon | HCT-15 colon | HL-60(TB) leukemia | HOP-62 NSCLC | HOP-92 NSCLC | HS 578T breast | HT29 colon | IGROV1 ovarian | K-562 leukemia | KM12 colon | LOX IMVI melanoma | M14 melanoma | MCF7 breast | MDA-MB-231 breast | MDA-MB-435 | MDA-N | MOLT-4 leukemia | NCI-H226 lung | NCI-H23 lung | NCI-H460 lung | NCI/ADR-RES ovarian | OVCAR-3 ovarian | OVCAR-4 ovarian | OVCAR-5 ovarian | OVCAR-8 ovarian | PC-3 prostate | RPMI-8226 leukemia | RXF 393 renal | SF-268 CNS | SF-295 CNS | SF-539 CNS | SK-MEL-2 melanoma | SK-MEL-28 melanoma | SK-MEL-5 melanoma | SK-OV-3 ovarian | SNB-19 CNS | SNB-75 CNS | SR leukemia | SW-620 colon | T-47D breast | TK-10 renal | U251 CNS | UACC-257 melanoma | UACC-62 melanoma | UO-31 renal

CCOC(=O)C(=O)/C(=C/n1c(=S)[nH]c2ccc([N+](=O)[O-])cc21)C(=O)OCC
> 100 µM: 786-0 renal | A498 renal | A549 NSCLC | ACHN renal | CAKI-1 renal | CCRF-CEM leukemia | COLO 205 colon | DU-145 prostate | HCC-2998 colon | HCT-116 colon | HL-60(TB) leukemia | HOP-62 NSCLC | HOP-92 NSCLC | HS 578T breast | HT29 colon | K-562 leukemia | KM12 colon | LOX IMVI melanoma | M14 melanoma | MCF7 breast | MDA-MB-231 breast | MDA-MB-435 | MDA-N | MOLT-4 leukemia | NCI-H226 lung | NCI-H23 lung | NCI-H460 lung | NCI/ADR-RES ovarian | OVCAR-3 ovarian | OVCAR-4 ovarian | OVCAR-5 ovarian | OVCAR-8 ovarian | PC-3 prostate | RPMI-8226 leukemia | RXF 393 renal | SF-268 CNS | SF-295 CNS | SF-539 CNS | SK-MEL-2 melanoma | SK-MEL-28 melanoma | SK-MEL-5 melanoma | SK-OV-3 ovarian | SN12C renal | SNB-19 CNS | SNB-75 CNS | SR leukemia | SW-620 colon | T-47D breast | TK-10 renal | U251 CNS | UACC-257 melanoma | UACC-62 melanoma | UO-31 renal
